Experimental data from PubChem BioAssay (NCI).
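Cultured in 96-well plates, cells were exposed to test compound for 48 hours across five concentrations. Here, GI50 denotes the concentration required for 50% inhibition of growth. TGI is the concentration that stops growth completely.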

How the values were obtained:
Test in all cases: NCI tumour cell line growth inhibition, 48 h
[1] = system: RXF 393 renal
[2] = system: COLO 205 colon
[3] = system: IGROV1 ovarian
[4] = system: A498 renal
[5] = system: SF-295 CNS
[6] = system: NCI-H522 lung
[7] = system: KM12 colon
[8] = system: SF-539 CNS
[9] = system: NCI/ADR-RES ovarian
[10] = system: ACHN renal

Row | SMILES | GI50 [1] | TGI [1] | GI50 [2] | TGI [2] | GI50 [3] | TGI [3] | GI50 [4] | TGI [4] | GI50 [5] | TGI [5] | GI50 [6] | TGI [6] | GI50 [7] | TGI [7] | GI50 [8] | TGI [8] | GI50 [9] | TGI [9] | GI50 [10] | TGI [10]
1 | Clc1cc(Cl)cc(Nc2ccc3c(OCCCN4CCOCC4)cccc3n2)c1 | 2.26 µM | 5.14 µM | 1.77 µM | 3.56 µM | 3.9 µM | 17.6 µM | 2.39 µM | 12.1 µM | 1.92 µM | 4.06 µM | 1.82 µM | 3.57 µM | 2 µM | 4.13 µM | 1.94 µM | 3.84 µM | 2.88 µM | 9.29 µM | 3.02 µM | 10.3 µM
2 | c1ccc(-c2nc3ccccc3[nH]2)c(OCCCCCOc2ccccc2-c2nc3ccccc3[nH]2)c1 |  |  | 8.49 µM | 31.9 µM | 18.1 µM | 47.1 µM | 12.1 µM | 25.5 µM | 15.3 µM | 41.2 µM | 5.46 µM | 39.1 µM | 15.8 µM | 72.4 µM | 3.44 µM | 11.5 µM | 5.74 µM | 33.3 µM | 13.1 µM | 26.9 µM
3 | COc1ccc(N=C2C(=O)Nc3ccc(Br)cc32)cc1 |  | 36.9 µM |  | 34.6 µM |  |  |  | > 100 µM |  | > 100 µM |  | 24.9 µM |  | 29.4 µM |  | 35.8 µM |  | 87.9 µM |  | 38.6 µM
4 | Cn1cc(C2=C(c3cccc([N+](=O)[O-])c3)C(=O)NC2=O)c2ccccc21 | 2.12 µM | 9.4 µM | 8.32 µM | > 25 µM | 9.98 µM | 24.2 µM | 0.539 µM | 1.81 µM | 2.14 µM | > 14 µM | 7.66 µM | > 22.5 µM | 5.05 µM | 12.9 µM | 6.1 µM | > 25 µM | 5.66 µM | > 23.1 µM | 4.88 µM | > 25 µM
5 | COc1cc([N+](=O)[O-])c(S(=O)(=O)O)cc1-[n+]1nc(C(=O)Nc2ccccc2)nn1-c1ccc([N+](=O)[O-])c(S(=O)(=O)[O-])c1 |  | > 100 µM |  | > 100 µM |  | > 100 µM |  |  |  | > 100 µM |  | > 100 µM |  | > 100 µM |  | > 100 µM |  | > 100 µM |  | > 100 µM
6 | O=C(NCCNC1=CC(=O)c2nc3ccccc3c3ccnc1c23)c1cnccn1 |  |  | 52 µM | > 100 µM | 45.2 µM | > 100 µM | > 100 µM | > 100 µM | 18.9 µM | > 100 µM | 44 µM | > 100 µM | 11.2 µM | 63.4 µM | 51.5 µM | > 100 µM | 96.6 µM | > 100 µM | 32.4 µM | > 100 µM
7 | CC[C@]1(O)C[C@@H]2CN(CCc3c([nH]c4ccccc34)[C@@](C(=O)OC)(c3cc4c(cc3OC)N(C)[C@H]3[C@@](O)(C(=O)OC)[C@H](OC(=O)CCCBr)[C@]5(CC)C=CCN6CC[C@]43[C@@H]65)C2)C1 | < 0.01 µM | < 0.01 µM |  |  | 0.0263 µM | > 100 µM | < 0.0114 µM | < 0.0258 µM |  |  |  |  | < 0.0163 µM | 3.84 µM |  |  | 0.986 µM | > 100 µM | 0.108 µM | > 100 µM
8 | O=C(Cc1csc2nc(-c3ccc(Br)cc3)cn12)N/N=C/c1ccccc1O | 37.7 µM | 62.5 µM | 5.08 µM | 23.1 µM | 1.04 µM | 11.5 µM |  |  | 2.73 µM | 9.34 µM | 5.27 µM | 27.2 µM | 3.62 µM | 16.8 µM | 3.55 µM | 11.8 µM | 2.53 µM | 6.83 µM | 1.57 µM | 6.3 µM
9 | Nc1nc2c([nH]1)c1[nH]c3ccccc3c1c1[nH]c3ccccc3c21 | 6.08 µM | 19.4 µM |  |  | 10.2 µM | 22.6 µM | 18.8 µM | 35 µM | 13.9 µM | 27.5 µM | 17.2 µM | 34.1 µM | 6.91 µM | 21.2 µM | 12.8 µM | 25.6 µM | 18.9 µM | 45.1 µM | 12 µM | 24.4 µM
10 | COc1cc(/C=C/C(=O)/C=C/c2ccc(-n3ccnc3)cc2)ccc1O | 1.81 µM | 3.42 µM | 3.26 µM | 10.1 µM |  |  | 7.22 µM | 19.9 µM | 14 µM | 33 µM | 4.98 µM | 18.9 µM | 2.11 µM | 4.59 µM | 2.47 µM | 6.31 µM | 15.9 µM | > 100 µM | 3.27 µM | 12.6 µM
